Laboratory results published in patent US20170239237A1, “PYRROLOQUINOLINE DERIVATIVES AS 5-HT6 ANTAGONISTS, PREPARATION METHOD AND USE THEREOF” (Uniwersytet Jagiellonski, priority 2013, published 2017).
Marks after values point to notes of the source that are not given here.

Columns and labels:
5-HT6 receptor = 5-HT6 receptor (Homo sapiens, UniProt P50406); test: Radioligand binding, 5-HT6 ([3H]-LSD displacement); conditions: for displacement % at 10^−6M, 5-HT6: values marked c in the 5-HT6 column
Sequence of 5-HT6 receptor (P50406 whole entry): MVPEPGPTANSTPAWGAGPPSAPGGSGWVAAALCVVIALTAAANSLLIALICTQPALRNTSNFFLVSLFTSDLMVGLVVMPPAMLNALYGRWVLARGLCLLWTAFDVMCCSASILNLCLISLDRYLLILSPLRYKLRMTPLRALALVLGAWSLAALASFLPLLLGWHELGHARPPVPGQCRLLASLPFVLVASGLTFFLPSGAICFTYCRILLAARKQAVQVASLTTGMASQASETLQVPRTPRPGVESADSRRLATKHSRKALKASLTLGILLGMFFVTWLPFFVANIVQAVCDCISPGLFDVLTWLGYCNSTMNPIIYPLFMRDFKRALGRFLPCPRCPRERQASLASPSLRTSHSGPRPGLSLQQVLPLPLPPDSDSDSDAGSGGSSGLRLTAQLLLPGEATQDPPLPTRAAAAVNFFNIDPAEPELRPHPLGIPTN

5-HT1A receptor = biological target: T1, 5-HT1A receptor (Homo sapiens, UniProt P08908); test: Radioligand binding, 5-HT1A ([3H]-8-OH-DPAT displacement)
T1 sequence (P08908 1-422): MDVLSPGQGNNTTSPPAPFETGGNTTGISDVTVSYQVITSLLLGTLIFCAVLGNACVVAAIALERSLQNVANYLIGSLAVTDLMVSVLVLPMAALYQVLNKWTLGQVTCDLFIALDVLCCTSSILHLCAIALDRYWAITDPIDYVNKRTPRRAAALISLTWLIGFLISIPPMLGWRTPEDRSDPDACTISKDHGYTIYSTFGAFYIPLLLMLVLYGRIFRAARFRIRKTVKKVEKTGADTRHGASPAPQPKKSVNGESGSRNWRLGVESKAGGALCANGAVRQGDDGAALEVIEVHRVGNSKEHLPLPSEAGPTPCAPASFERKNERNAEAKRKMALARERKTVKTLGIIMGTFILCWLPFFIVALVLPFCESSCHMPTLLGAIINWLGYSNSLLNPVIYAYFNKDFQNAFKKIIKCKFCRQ

5-HT7 receptor = 5-HT7 receptor (Homo sapiens, UniProt P34969); test: Radioligand binding, 5-HT7 ([3H]-5-CT displacement)
Sequence of 5-HT7 receptor (P34969 1-432 limits assumed): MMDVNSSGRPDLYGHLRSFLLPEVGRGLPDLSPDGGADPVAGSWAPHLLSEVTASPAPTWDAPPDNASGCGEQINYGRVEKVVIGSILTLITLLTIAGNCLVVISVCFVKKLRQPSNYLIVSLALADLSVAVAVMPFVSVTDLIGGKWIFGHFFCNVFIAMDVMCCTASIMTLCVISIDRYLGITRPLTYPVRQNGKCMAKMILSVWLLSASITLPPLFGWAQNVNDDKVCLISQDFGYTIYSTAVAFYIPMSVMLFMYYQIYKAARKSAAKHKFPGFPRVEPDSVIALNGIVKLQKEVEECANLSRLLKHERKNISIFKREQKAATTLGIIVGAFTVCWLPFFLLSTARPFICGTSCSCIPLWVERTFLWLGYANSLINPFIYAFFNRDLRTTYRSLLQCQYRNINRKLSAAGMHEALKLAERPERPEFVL

dopamine D2L receptor = dopamine D2L receptor (Homo sapiens, UniProt P14416); test: Radioligand binding, D2 ([3H]-raclopride displacement)
Sequence of dopamine D2L receptor (P14416 whole entry): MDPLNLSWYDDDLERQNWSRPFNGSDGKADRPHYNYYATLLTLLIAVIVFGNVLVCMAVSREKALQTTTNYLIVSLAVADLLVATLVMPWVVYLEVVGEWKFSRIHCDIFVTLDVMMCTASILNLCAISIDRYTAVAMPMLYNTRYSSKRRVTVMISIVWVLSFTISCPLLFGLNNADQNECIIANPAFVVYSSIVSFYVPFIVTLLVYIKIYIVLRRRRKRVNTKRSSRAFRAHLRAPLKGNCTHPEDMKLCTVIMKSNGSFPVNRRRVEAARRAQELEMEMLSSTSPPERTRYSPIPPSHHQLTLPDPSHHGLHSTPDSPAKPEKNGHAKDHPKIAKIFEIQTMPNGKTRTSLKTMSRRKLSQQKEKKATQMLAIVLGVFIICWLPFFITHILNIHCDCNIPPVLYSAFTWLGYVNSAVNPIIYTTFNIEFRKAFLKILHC

displacement % at 10^−6M, 5-HT6 (5-HT6 receptor)	Ki (5-HT7 receptor) [µM]	Compound	further results
98^c %		O=S(=O)(c1cccc(Cl)c1)n1ccc2c(NC3CNC3)nc3ccccc3c21 [Compound 2, 1-((3-chlorophenyl)sulfonyl)-N-(azetidin-3-yl)-1H-pyrrolo[3,2-c]quinolin-4-amine]	
99^c %		O=S(=O)(c1cccc(F)c1)n1ccc2c(N[C@H]3CCNC3)nc3ccccc3c21 [Compound 9, (S)-1-((3-fluorophenyl)sulfonyl)-N-(pyrrolidin-3-yl)-1H-pyrrolo[3,2-c]quinolin-4-amine]	
	5.22	O=S(=O)(c1cc(F)ccc1F)n1ccc2c(NC3CCNC3)nc3ccccc3c21 (stereo not drawn) [Compound 12, 1-((2,5-difluorophenyl)sulfonyl)-N-(pyrrolidin-3-yl)-1H-pyrrolo[3,2-c]quinolin-4-amine]	Ki (5-HT1A receptor): 7.06 µM; Ki (5-HT6 receptor): 0.009 µM
98^c %		O=S(=O)(c1cccc(C(F)(F)F)c1)n1ccc2c(N[C@H]3CCNC3)nc3ccccc3c21 [Compound 15, (S)-1-((3-(trifluoromethyl)phenyl)sulfonyl)-N-(pyrrolidin-3-yl)-1H-pyrrolo[3,2-c]quinolin-4-amine]	
99^c %		O=S(=O)(c1cccc(C(F)(F)F)c1)n1ccc2c(N[C@@H]3CCNC3)nc3ccccc3c21 [Compound 16, (R)-1-((3-(trifluoromethyl)phenyl)sulfonyl)-N-(pyrrolidin-3-yl)-1H-pyrrolo[3,2-c]quinolin-4-amine]	
	1.29	CC(C)(C)c1ccc(S(=O)(=O)n2ccc3c(NC4CCNC4)nc4ccccc4c32)cc1 (stereo not drawn) [Compound 17, 1-((4-(tert-butyl)phenyl)sulfonyl)-N-(pyrrolidin-3-yl)-1H-pyrrolo[3,2-c]quinolin-4-amine]	Ki (5-HT1A receptor): 6.31 µM; Ki (5-HT6 receptor): 0.101 µM
100^c %		Nc1ccc(S(=O)(=O)n2ccc3c(NC4CCNC4)nc4ccccc4c32)cc1 (stereo not drawn) [Compound 18, 1-((4-aminophenyl)sulfonyl)-N-(pyrrolidin-3-yl)-1H-pyrrolo[3,2-c]quinolin-4-amine]	
100^c %		Nc1ccc(S(=O)(=O)n2ccc3c(N[C@H]4CCNC4)nc4ccccc4c32)cc1 [Compound 19, (S)-1-((4-aminophenyl)sulfonyl)-N-(pyrrolidin-3-yl)-1H-pyrrolo[3,2-c]quinolin-4-amine]	
99^c %		Nc1ccc(S(=O)(=O)n2ccc3c(N[C@@H]4CCNC4)nc4ccccc4c32)cc1 [Compound 20, (R)-1-((4-aminophenyl)sulfonyl)-N-(pyrrolidin-3-yl)-1H-pyrrolo[3,2-c]quinolin-4-amine]	
95^c %		O=S(=O)(c1cccc(Cl)c1)n1ccc2c(NC3CCNC3)nc3cc(F)ccc3c21 (stereo not drawn) [Compound 24, 7-fluoro-1-((3-chlorophenyl)sulfonyl)-N-(pyrrolidin-3-yl)-1H-pyrrolo[3,2-c]quinolin-4-amine]	
96^c %		O=S(=O)(c1cccc(Cl)c1)n1ccc2c(NC3CCNC3)nc3ccc(Cl)cc3c21 (stereo not drawn) [Compound 25, 8-chloro-1-((3-chlorophenyl)sulfonyl)-N-(pyrrolidin-3-yl)-1H-pyrrolo[3,2-c]quinolin-4-amine]	
	8.45	CC(C)(C)c1ccc(S(=O)(=O)n2ccc3c(N4CCNCC4)nc4ccccc4c32)cc1 [Compound 41, 1-((4-(tert-butyl)phenyl)sulfonyl)-4-(piperazin-1-yl)-1H-pyrrolo[3,2-c]quinoline]	Ki (dopamine D2L receptor): 1.68 µM; Ki (5-HT6 receptor): 0.041 µM
99^c %		O=S(=O)(c1ccc2ccccc2c1)n1ccc2c(N3CCNCC3)nc3ccccc3c21 [Compound 44, 1-(naphthalen-2-ylsulfonyl)-4-(piperazin-1-yl)-1H-pyrrolo[3,2-c]quinoline]	
	2.96	Cc1ccc2sc(S(=O)(=O)n3ccc4c(N5CCNCC5)nc5ccccc5c43)cc2c1 [Compound 47, 1-((5-methylbenzo[b]thiophen-2-yl)sulfonyl)-4-(piperazin-1-yl)-1H-pyrrolo[3,2-c]quinoline]	Ki (dopamine D2L receptor): 1.56 µM; Ki (5-HT6 receptor): 0.028 µM
	3.27	Clc1cccc(Cn2ccc3c(N4CCNCC4)nc4ccccc4c32)c1 [Compound 49, 1-(3-chlorobenzyl)-4-(piperazin-1-yl)-1H-pyrrolo[3,2-c]quinoline]	Ki (5-HT1A receptor): 3.26 µM
90^C %		O=C(c1cccc(Cl)c1)n1ccc2c(N3CCNCC3)nc3ccccc3c21 [Compound 51, (3-chlorophenyl)-(4-(piperazin-1-yl)-1H-pyrrolo[3,2-c]quinolin-1-yl)methanone]	
86^c %		CC(C)c1ccc(S(=O)(=O)n2ccc3c(N4CCNCC4)nc4ccc([N+](=O)[O-])cc4c32)cc1 [Compound 63, 8-nitro-1-((4-isopropylphenyl)sulfonyl)-4-(piperazin-1-yl)-1H-pyrrolo[3,2-c]quinoline]	
90^c %		Nc1ccc2nc(N3CCNCC3)c3ccn(S(=O)(=O)c4ccc(Cl)c(Cl)c4)c3c2c1 [Compound 65, 8-amino-1-((3,4-dichlorophenyl)sulfonyl)-4-(piperazin-1-yl)-1H-pyrrolo[3,2-c]quinoline]	
98^c %		O=S(=O)(c1cccc2ccccc12)n1ccc2c(N3CCNCC3)nc3ccc(Cl)cc3c21 [Compound 71, 8-chloro-1-(naphthalen-1-ylsulfonyl)-4-(piperazin-1-yl)-1H-pyrrolo[3,2-c]quinoline]	
100^c %		O=S(=O)(c1cccc(Cl)c1)n1ccc2c(N3CCCNCC3)nc3ccccc3c21 [Compound 75, 1-((3-chlorophenyl)sulfonyl)-4-(1,4-diazepan-1-yl)-1H-pyrrolo[3,2-c]quinoline]	
	3.42	O=S(=O)(c1cccc2cccnc12)n1ccc2c(N3CCOCC3)nc3ccccc3c21 [Compound 79, 1-(quinolin-8-ylsulfonyl)-4-(morpholine-4-yl)-1H-pyrrolo[3,2-c]quinoline]	Ki (dopamine D2L receptor): 1.23 µM; Ki (5-HT6 receptor): 0.095 µM
96^c %		O=S(=O)(c1cc(F)ccc1F)n1ccc2c(OC3CCNC3)nc3ccccc3c21 (stereo not drawn) [Compound 81, 1-((2,5-difluorophenyl)sulfonyl)-4-(pyrrolidin-3-yloxy)-1H-pyrrolo[3,2-c]quinoline]	

Compound	displacement % at 10^−6M, 5-HT6 (5-HT6 receptor)	Ki (5-HT7 receptor) [µM]	further results
8-carbonitrile-1-(naphthalen-1-ylsulfonyl)-4-(piperazin-1-yl)-1H-pyrrolo[3,2-c]quinoline [Compound 67]	100^c %		
O=S(=O)(c1ccccc1)n1ccc2c(NC3CCNC3)nc3ccccc3c21 (stereo not drawn) [Compound 4, 1-(phenylsulfonyl)-N-(pyrrolidin-3-yl)-1H-pyrrolo[3,2-c]quinolin-4-amine]		7.89	Ki (5-HT1A receptor): 9.15 µM; Ki (5-HT6 receptor): 0.004 µM
CNC1CCN(c2nc3ccccc3c3c2ccn3S(=O)(=O)c2ccccc2)C1 (stereo not drawn) [Compound 26, N-methyl-1-(1-(phenylsulfonyl)-1H-pyrrolo[3,2-c]quinolin-4-yl)pyrrolidin-3-amine]	90^c %		
O=S(=O)(c1ccc(Cl)c(Cl)c1)n1ccc2c(N3CCNCC3)nc3ccccc3c21 [Compound 34, 1-((3,4-dichlorophenyl)sulfonyl)-4-(piperazin-1-yl)-1H-pyrrolo[3,2-c]quinoline]		1.98	Ki (dopamine D2L receptor): 1.55 µM
O=S(=O)(c1cccc(C(F)(F)F)c1)n1ccc2c(N3CCNCC3)nc3ccccc3c21 [Compound 35, 1-((3-(trifluoromethyl)phenyl)sulfonyl)-4-(piperazin-1-yl)-1H-pyrrolo[3,2-c]quinoline]		6.39	Ki (dopamine D2L receptor): 2.63 µM
